The assay addresses T1, CCR3 (Homo sapiens, UniProt P51677).
T1 sequence (P51677 1-355): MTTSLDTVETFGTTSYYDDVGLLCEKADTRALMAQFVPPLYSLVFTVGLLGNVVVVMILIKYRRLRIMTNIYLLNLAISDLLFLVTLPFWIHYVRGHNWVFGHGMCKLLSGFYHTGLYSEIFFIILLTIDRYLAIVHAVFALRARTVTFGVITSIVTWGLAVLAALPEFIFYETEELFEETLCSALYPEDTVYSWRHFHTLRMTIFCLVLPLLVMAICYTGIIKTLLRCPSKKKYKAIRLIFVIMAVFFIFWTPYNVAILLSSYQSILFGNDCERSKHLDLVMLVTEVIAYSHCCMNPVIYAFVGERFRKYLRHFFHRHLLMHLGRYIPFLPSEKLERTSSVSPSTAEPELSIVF
Kind of assay: CCR3 receptor binding assay ([125I]-labeled human eotaxin/CCL11 displacement on cells). As to conditions: 0.1 nM [125I]-labeled human eotaxin/CCL11, 2×10^5 cells/well, 60 min at room temperature. On the procedure:
CCR3 Receptor Binding Assay
Cells were washed once with PBS and resuspended in a binding buffer (25 mM HEPES pH 7.6, 5 mM MgCl2, 1 mM CaCl2, 0.5% BSA, 0.1% NaN3). […] of cell suspension (2×10^5 cells/well) and 0.1 nM [^125I]-labeled human eotaxin/CCL11 (2000 Ci/mmol specific activity) were mixed in a 96-well U-bottom polypropylene plate, and incubated for 60 min at room temperature for the binding reaction. The cell suspension was then transferred to a filtration plate (#MAFB, Millipore), and washed 3 times with the binding buffer containing 0.5 M NaCl, scintillant added, and the radioactivity was counted on a TopCount (Packard). For the determination of non-specific binding, the cell suspension and [^125I]-labeled human eotaxin/CCL11 were incubated in the presence of 500 nM of unlabeled human eotaxin/CCL11. See, lino et al., “Molecular cloning and functional characterization of cynomolgus monkey (Macaca fascicularis) CC chemokine receptor, CCR3,” Cytokine 2002, 19, 276-286.
The term Ki denotes a measure of affinity in units of concentration, obtained from inhibition or displacement. A low value points to a stronger hold on the target. The molecule `O=C(c1ccc(C(F)(F)F)cc1)N1CCN(S(=O)(=O)c2cc([N+](=O)[O-])ccc2Sc2cc(Cl)ccc2Cl)CC1` [Compound 153, (4-(2-(2,5-Dichlorophenylthio)-5-nitrophenylsulfonyl)piperazin-1-yl)(4-(trifluoromethyl)phenyl)methanone] registered a Ki of more than 5 µM.
Next, `N#Cc1ccc(Oc2cc(Cl)cc(Cl)c2)c(S(=O)(=O)N2CCN(C(=O)c3ccccc3F)CC2)c1` [Compound 85, 4-(3,5-Dichlorophenoxy)-3-(4-(2-fluorobenzoyl)piperazin-1-ylsulfonyl)benzonitrile]: 0.5 to 5 µM.
In the case of `N#CCC(=O)N1CCN(S(=O)(=O)c2cc(C#N)ccc2Oc2cc(Cl)cc(Cl)c2)CC1` [Compound 148], the Ki was 0.05 to 0.5 µM.
`Cc1cc(C)cc(Oc2ccc(C#N)cc2S(=O)(=O)N2CCN(C(=O)C(C)(C)C)CC2)c1` [Compound 63, 4-(3,5-Dimethylphenoxy)-3-(4-pivaloylpiperazin-1-ylsulfonyl)benzonitrile] returned a Ki of more than 5 µM.
In turn, `COc1ccc(C(=O)N2CCN(S(=O)(=O)c3cc([N+](=O)[O-])ccc3Oc3cc(C)ccc3C)CC2)cc1` [Compound 189, (4-(2-(2,5-Dimethylphenoxy)-5-nitrophenylsulfonyl)piperazin-1-yl)(4-methoxyphenyl)methanone] yielded a Ki of more than 5 µM.
`CCC(C)(C)C(=O)N1CCN(S(=O)(=O)c2cc(C#N)ccc2Oc2cc(C)cc(C)c2)CC1` [Compound 59, 3-(4-(2,2-Dimethylbutanoyl)piperazin-1-ylsulfonyl)-4-(3,5-dimethylphenoxy)benzonitrile] displayed a Ki of more than 5 µM.
Next, `COc1ccc(OC(=O)N2CCN(S(=O)(=O)c3cc(C#N)ccc3Oc3cc(Cl)cc(Cl)c3)CC2)cc1` [Compound 156]: more than 5 µM.
Next, `Cc1ccc(C(=O)N2CCN(S(=O)(=O)c3cc(C#N)ccc3Sc3cc(C)cc(C)c3)CC2)cc1` [Compound 90, 4-(3,5-Dimethylphenylthio)-3-(4-(4-methylbenzoyl)piperazin-1-ylsulfonyl)benzonitrile]: 0.05 to 0.5 µM.
Molecule `C=CNC(=O)N1CCN(S(=O)(=O)c2cc(C#N)ccc2Oc2cc(Cl)cc(Cl)c2)CC1` [Compound 150] registered a Ki of more than 5 µM.
`N#Cc1ccc(Oc2cc(Cl)cc(Cl)c2)c(S(=O)(=O)N2CCN(C(=S)NCc3cccc(Cl)c3)CC2)c1` [Compound 149] yielded a Ki of more than 5 µM.
In turn, `N#Cc1ccc(Oc2cc(Cl)cc(Cl)c2)c(S(=O)(=O)N2CCN(C(=O)c3cccs3)CC2)c1` [Compound 123] registered a Ki of more than 5 µM.
Consider `N#Cc1ccc(Oc2cc(Cl)cc(Cl)c2)c(S(=O)(=O)N2CCN(C(=O)c3ccc(Cl)cc3)CC2)c1` [Compound 78, 3-(4-(4-Chlorobenzoyl)piperazin-1-ylsulfonyl)-4-(3,5-dichlorophenoxy)benzonitrile], for which the inhibitory constant (Ki) was in the range of 0.05 to 0.5 µM.
Under `COc1ccc(C(=O)N2CCN(S(=O)(=O)c3cc([N+](=O)[O-])ccc3Sc3cc(C)ccc3C)CC2)cc1` [Compound 174, (4-(2-(2,5-Dimethylphenylthio)-5-nitrophenylsulfonyl)piperazin-1-yl)(4-methoxyphenyl)methanone] stands more than 5 µM.
On to `C=CCNC(=O)N1CCN(S(=O)(=O)c2cc([N+](=O)[O-])ccc2Sc2cc(Cl)ccc2Cl)CC1` [Compound 191, N-Allyl-4-(2-(2,5-dichlorophenylthio)-5-nitrophenylsulfonyl)piperazine-1-carboxamide], for which the Ki was not above 0.05 µM.
In turn, `Cc1ccc(C(=O)N2CCN(S(=O)(=O)c3cc(C#N)ccc3Oc3cc(Cl)cc(Cl)c3)CC2)cc1` [Compound 82, 4-(3,5-Dichlorophenoxy)-3-(4-(4-methylbenzoyl)piperazin-1-ylsulfonyl)benzonitrile] returned an inhibitory constant (Ki) of 0.5 to 5 µM.
In turn, `Cc1cc(C)cc(Sc2ccc(C#N)cc2S(=O)(=O)N2CCN(C(=O)c3cccc(C)c3)CC2)c1` [Compound 91, 4-(3,5-Dimethylphenylthio)-3-(4-(3-methylbenzoyl)piperazin-1-ylsulfonyl)benzonitrile] returned a Ki of 0.05 to 0.5 µM.
For `Cc1cc(C)cc(Oc2ccc(C#N)cc2S(=O)(=O)N2CCN(C(=O)NC(C)C)CC2)c1` [Compound 58, 4-(5-cyano-2-(3,5-dimethylphenoxy)phenylsulfonyl)-N-isopropylpiperazine-1-carboxamide], the inhibition constant (Ki) was in the range of 0.05 to 0.5 µM.
`O=C(c1ccc(Cl)cc1)N1CCN(S(=O)(=O)c2cc([N+](=O)[O-])ccc2Sc2cc(Cl)ccc2Cl)CC1` [Compound 164, (4-Chlorophenyl)(4-(2-(2,5-dichlorophenylthio)-5-nitrophenylsulfonyl)-piperazin-1-yl)methanone] had an inhibition constant Ki of more than 5 µM.
Take `N#Cc1ccc(Oc2cc(Cl)cc(Cl)c2)c(S(=O)(=O)N2CCN(C(=O)c3ccccn3)CC2)c1` [Compound 128]: the Ki fell in the range of 0.5 to 5 µM.
Molecule `N#Cc1ccc(Oc2cc(Cl)cc(Cl)c2)c(S(=O)(=O)N2CCN(C(=O)c3cc4ccccc4o3)CC2)c1` [Compound 129] yielded an inhibition constant (Ki) of more than 5 µM.
In turn, `N#Cc1ccc(Oc2cc(Cl)cc(Cl)c2)c(S(=O)(=O)N2CCN(C(=O)c3ccc(F)cc3)CC2)c1` [Compound 87, 4-(3,5-Dichlorophenoxy)-3-(4-(4-fluorobenzoyl)piperazin-1-ylsulfonyl)benzonitrile] displayed a Ki of more than 5 µM.
Under `O=C(c1ccco1)N1CCN(S(=O)(=O)c2cc([N+](=O)[O-])ccc2Oc2cc(Cl)ccc2Cl)CC1` [Compound 185, (4-(2-(2,5-Dichlorophenoxy)-5-nitrophenylsulfonyl)piperazin-1-yl)(furan-2-yl)methanone] stands more than 5 µM.
Next, `N/C(=N\[N+](=O)[O-])N1CCN(S(=O)(=O)c2cc([N+](=O)[O-])ccc2Oc2cc(Cl)cc(Cl)c2)CC1` [Compound 154]: more than 5 µM; `COc1ccc(C(=O)N2CCN(S(=O)(=O)c3cc([N+](=O)[O-])ccc3Sc3cc(Cl)ccc3Cl)CC2)cc1` [Compound 165, (4-Methoxyphenyl)(4-(2-(2,5-dichlorophenylthio)-5-nitrophenylsulfonyl)-piperazin-1-yl)methanone]: more than 5 µM.
`CC(=O)c1cccc(NC(=O)N2CCN(S(=O)(=O)c3cc(C#N)ccc3Oc3cc(Cl)cc(Cl)c3)CC2)c1` [Compound 140] returned a Ki not above 0.05 µM.
The molecule `CS(=O)(=O)N1CCN(S(=O)(=O)c2cc(C#N)ccc2Oc2cc(Cl)cc(Cl)c2)CC1` [Compound 76, 4-(3,5-Dichlorophenoxy)-3-(4-(methylsulfonyl)piperazin-1-ylsulfonyl)benzonitrile] came in with an inhibition constant (Ki) not above 0.05 µM.
In turn, `Cc1ccc(NC(=O)N2CCN(S(=O)(=O)c3cc([N+](=O)[O-])ccc3Sc3cc(Cl)ccc3Cl)CC2)cc1` [Compound 193, 4-(2-(2,5-Dichlorophenylthio)-5-nitrophenylsulfonyl)-N-p-tolylpiperazine-1-carboxamide] had a Ki of more than 5 µM.
`N#Cc1ccc(Oc2cc(Cl)cc(Cl)c2)c(S(=O)(=O)N2CCN(C(=O)c3cccc(Cl)c3)CC2)c1` [Compound 81, 3-(4-(3-Chlorobenzoyl)piperazin-1-ylsulfonyl)-4-(3,5-dichlorophenoxy)benzonitrile] registered a Ki of 0.5 to 5 µM.
`N#Cc1ccc(Oc2cc(Cl)cc(Cl)c2)c(S(=O)(=O)N2CCN(C(N)=O)CC2)c1` [Compound 125] yielded a Ki not above 0.05 µM.
Under `Cc1ccc(C)c(Oc2ccc([N+](=O)[O-])cc2S(=O)(=O)N2CCN(C(=O)c3ccco3)CC2)c1` [Compound 190, (4-(2-(2,5-Dimethylphenoxy)-5-nitrophenylsulfonyl)piperazin-1-yl)(furan-2-yl)methanone] stands more than 5 µM; under `CCc1ccc(NC(=O)N2CCN(S(=O)(=O)c3cc(C#N)ccc3Oc3cc(C)cc(C)c3)CC2)cc1` [Compound 62, 4-(5-Cyano-2-(3,5-dimethylphenoxy)phenylsulfonyl)-N-(4-ethylphenyl)piperazine-1-carboxamide], more than 5 µM.
Take `N#Cc1ccc(Oc2cc(Cl)cc(Cl)c2)c(S(=O)(=O)N2CCN(C(=O)c3cccc(F)c3)CC2)c1` [Compound 86, 4-(3,5-Dichlorophenoxy)-3-(4-(3-fluorobenzoyl)piperazin-1-ylsulfonyl)benzonitrile]: the inhibition constant Ki is more than 5 µM.
In turn, `Cc1cc(C)cc(Oc2ccc(C#N)cc2S(=O)(=O)N2CCN(C(=O)c3ccc(C(F)(F)F)cc3)CC2)c1` [Compound 54, 4-(3,5-Dimethylphenoxy)-3-(4-(4-(trifluoromethyl)benzoyl)piperazin-1-ylsulfonyl)benzonitrile] showed a Ki of more than 5 µM.
On to `Cc1cc(C)cc(Oc2ccc(C#N)cc2S(=O)(=O)N2CCN(C(=O)CC(C)(C)C)CC2)c1` [Compound 67, 3-(4-(3,3-Dimethylbutanoyl)piperazin-1-ylsulfonyl)-4-(3,5-dimethylphenoxy)benzonitrile], for which the Ki is more than 5 µM.
`O=C(C1CCC1)N1CCN(S(=O)(=O)c2cc([N+](=O)[O-])ccc2Sc2cc(Cl)ccc2Cl)CC1` [Compound 161, Cyclobutyl(4-(2-(2,5-dichlorophenylthio)-5-nitrophenylsulfonyl)piperazin-1-yl)methanone] returned a Ki of more than 5 µM.
